The source of these data is patent US9187477B2, “Azabenzimidazole derivatives” (Boehringer Ingelheim International GmbH, priority 2013, dated 2015).

SMILES strings stand for the structures.

In series [1] the target is AMPK complex 1 (containing alpha1beta1gamma1) (Homo sapiens (Human), UniProt Q13131+Q9Y478). The series is described as follows: in vitro AMPK activation assay (ADP-Glo Kinase Assay). It is filed as biochemical. As to conditions: AMPK alpha1beta1gamma1, ATP 30 μM, peptide 1 μM, 60 min, room temperature. An excerpt:
Activated AMPK complex 1 (containing alpha1beta1gamma1) was obtained from baculovirus expression system. The gene encoding AMPK alpha1 was cloned into the pACG2T vector (BD Biosciences) to obtain a N-terminal Glutathion S transferase (GST)-fusion protein. The genes encoding AMPK beta1 and gamma1 were cloned into the p2Bac dual multiple cloning site vector (Invitrogen) with beta1 under the control of the p10 promoter and gamma1 under the control of the PH promoter. The transfer vectors containing AMPK were co-transfected individually with AcPNV BacMagic-3 DNA (EMD Millipore) in Sf9 cells and the recombinant baculoviruses were harvested after 5 days, followed by 3 rounds of amplification of the virus stock in Sf9 cells. AMPK (alpha1beta1gamma1) was expressed in High Five 5 cells by co-infection of recombinant alpha1 virus and recombinant beta1/gamma1 virus for 72 h at 27° C. Cells were harvested by centrifugation and lysed by 3 freeze/thaw cycles in PBS with 10% glycerol and protease inhibitor cocktail (Roche). After centrifugation AMPK a1b1g1 in the supernatant was captured by immobilized glutathione (GE Healthcare), impurities were washed away with PBS and AMPK alpha1beta1gamma1 was eluted with PBS containing 20 mM reduced gluthathione. The protein buffer was then exchanged to PBS with 10% glycerol and protein concentration was determined by UV absorbance.
The white 384-well Optiplates (cat. no. 6007299) were purchased from PerkinElmer. The V9101 ADP-Glo Kinase Assay and ultra pure ATP (V915A) was purchased from Promega. The substrate for AMPK (NH2-HMRSAMSGLHLVKRR_CONH2) was purchased from Upstate (12-355).
Compounds were tested in either serial dilutions or single dose concentrations. The serial compound dilutions were prepared in 100% DMSO automatically. The final DMSO concentration in the assay was 0.1%.
The Compound Stock Solutions were 10 mM in 100% DMSO. The compounds were solubilised at room temperature.
In the 384-well plates 1.25 ul of test compound in assay buffer was mixed with 1.25 ul of AMPK and 1.25 μl of the peptide (final concentration of 1 μM) and 1.25 μl of ATP (final concentration of 30 μM), both dissolved in assay buffer. This step was followed by an incubation time of 60 min. Then 5 μl of ADP Glo Reagent was added. This was followed by 40 min of incubation. Then 10 μl of Kinase Detection Reagent was admixed. The plates were sealed and after an incubation period of 30 min, the luminescence signal was measured in an Envision reader. All incubation steps were accomplished at room temperature.
Each assay microtiter plate contained wells with vehicle controls instead of compound (0.1% DMSO in water) as reference for the low signal (100% CTL, low signal), and wells with serial dilutions of AMP (final 30 μM) as reference for high signals.
The luminescence signal generated was proportional to the ADP concentration produced and was correlated with AMPK activity. The analysis of the data was performed by the calculation of the percentage of ATP consumption of AMPK in the presence of the test compound compared to the consumption of ATP in the presence of AMPK without compound. (RLU(sample)/RLU(low control))*100[RLU=relative luminescence units]
An activator of the AMPK enzyme gave values above 100% CTL.
EC50 values based on dose response curves are calculated with the XIFIT software using the 4 Parameter Logistic Model or Sigmoidal Dose-Response Model.
Background: ADP-Glo turns the ADP formed in a reaction into a luminescent signal.

A short description of series [2]: Metabolic stability: metabolic degradation with pooled human liver microsomes. It is filed as in vitro ADME. The note with it: for c (control) (metabolic stability), remaining test compound after NADPH independent incubation: incubation without NADPH, after 2 hours, human liver microsomes; for t1/2 INVITRO: pooled human liver microsomes 1 mg/ml, 37° C., test compound 1 μM, NADPH 1 mM. How it is done:
The metabolic degradation of the test compound is assayed at 37° C. with pooled human liver microsomes. The final incubation volume of 100 μl per time point contains TRIS buffer pH 7.6 at room temperature (0.1 M), magnesium chloride (5 mM), microsomal protein (1 mg/ml) and the test compound at a final concentration of 1 μM.
Following a short preincubation period at 37° C., the reactions were initiated by addition of beta-nicotinamide adenine dinucleotide phosphate, reduced form (NADPH, 1 mM) and terminated by transferring an aliquot into solvent after different time points.
Additionally, the NADPH-independent degradation was monitored in incubations without NADPH, terminated at 2 hour time point. The [%] remaining test compound after NADPH independent incubation is reflected by the parameter c (control) (metabolic stability). A c (control) (metabolic stability) value around 100% excludes cofactor independent activities (e.g. from esterases).
The quenched incubations are pelleted by centrifugation (10000 g, 5 min).
An aliquot of the supernatant is assayed by LC-MS/MS for the amount of parent compound. The half-life (t1/2 INVITRO) is determined by the slope of the semilogarithmic plot of the concentration-time profile.
(Liver microsomes are vesicles of endoplasmic reticulum, rich in cytochrome P450 enzymes.)

The term EC50 denotes the concentration that produces a half-maximal response. High values mean a need for much substance, low ones an effect from little substance.

Sequence of AMPK complex 1 (containing alpha1beta1gamma1) (Q13131 whole entry, the tested form may be a part): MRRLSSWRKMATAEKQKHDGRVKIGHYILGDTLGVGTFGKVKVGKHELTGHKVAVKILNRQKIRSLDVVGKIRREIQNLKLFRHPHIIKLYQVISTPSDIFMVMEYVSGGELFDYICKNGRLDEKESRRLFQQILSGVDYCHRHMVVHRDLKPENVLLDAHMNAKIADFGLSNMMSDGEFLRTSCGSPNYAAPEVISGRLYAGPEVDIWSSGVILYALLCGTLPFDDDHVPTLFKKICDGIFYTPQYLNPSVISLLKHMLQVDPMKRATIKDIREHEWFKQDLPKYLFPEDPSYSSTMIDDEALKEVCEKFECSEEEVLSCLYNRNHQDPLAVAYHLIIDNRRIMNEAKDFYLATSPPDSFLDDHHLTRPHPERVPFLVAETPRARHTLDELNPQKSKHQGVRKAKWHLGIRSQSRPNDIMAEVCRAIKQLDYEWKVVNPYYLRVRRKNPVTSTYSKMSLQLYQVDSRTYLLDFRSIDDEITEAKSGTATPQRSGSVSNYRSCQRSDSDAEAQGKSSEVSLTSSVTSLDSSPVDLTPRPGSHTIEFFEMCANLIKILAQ
Sequence of AMPK complex 1 (containing alpha1beta1gamma1) (Q9Y478 whole entry, the tested form may be a part): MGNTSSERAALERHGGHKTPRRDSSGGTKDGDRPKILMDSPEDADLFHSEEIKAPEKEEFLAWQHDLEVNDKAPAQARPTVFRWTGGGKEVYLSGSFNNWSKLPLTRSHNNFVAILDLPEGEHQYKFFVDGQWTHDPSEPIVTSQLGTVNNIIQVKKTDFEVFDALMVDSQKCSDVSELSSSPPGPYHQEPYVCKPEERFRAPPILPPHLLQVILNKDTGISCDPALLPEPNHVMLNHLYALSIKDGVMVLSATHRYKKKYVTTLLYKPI
Sequence of AMPK complex 1 (containing alpha1beta1gamma1) (P54619 whole entry partner, the tested form may be a part): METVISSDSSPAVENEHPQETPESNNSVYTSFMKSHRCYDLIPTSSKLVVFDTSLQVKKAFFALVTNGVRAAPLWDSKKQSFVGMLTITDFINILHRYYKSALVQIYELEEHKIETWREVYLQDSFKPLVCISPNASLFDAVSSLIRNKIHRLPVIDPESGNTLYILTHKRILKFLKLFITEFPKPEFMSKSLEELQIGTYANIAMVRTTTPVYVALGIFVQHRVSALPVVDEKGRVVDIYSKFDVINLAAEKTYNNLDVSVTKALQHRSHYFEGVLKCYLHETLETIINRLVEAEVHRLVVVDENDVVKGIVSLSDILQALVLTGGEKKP

Take `O=C(N[C@H]1CC[C@@H](c2ccc(-c3nc4[nH]c(O[C@@H]5CO[C@H]6[C@@H]5OC[C@H]6O)nc4cc3Cl)cc2)CC1)OC1CCOCC1` [Example 5, Tetrahydro-2H-pyran-4-yl (cis)-4-(4-(6-chloro-2-((3R,3aR,6R,6aR)-6-hydroxyhexahydrofuro[3,2-b]furan-3-yloxy)-3H-imidazo[4,5-b]pyridin-5-yl)phenyl)cyclohexylcarbamate]: the EC50 in series [1] came out at 119 nM. Moreover, in series [2], the “c (control) (metabolic stability), remaining test compound after NADPH independent incubation” value was found to be 106% and the “t1/2 INVITRO” value came out at 1.13 h.
Turning to `O=C(N[C@H]1CC[C@@H](c2ccc(-c3nc4[nH]c(O[C@@H]5CO[C@H]6[C@@H]5OC[C@H]6O)nc4cc3Cl)cc2)CC1)OC1CCCC1` [Example 3, Cyclopentyl (cis)-4-(4-(6-chloro-2-((3R,3aR,6R,6aR)-6-hydroxyhexahydrofuro[3,2-b]furan-3-yloxy)-3H-imidazo[4,5-b]pyridin-5-yl)phenyl)cyclohexylcarbamate], the EC50 in series [1] amounted to 108 nM. In addition, in series [2], the “c (control) (metabolic stability), remaining test compound after NADPH independent incubation” value came to 117% and the “t1/2 INVITRO” value amounted to 0.317 h.
For `CC(C)NC(=O)O[C@H]1CC[C@@H](c2ccc(-c3nc4[nH]c(O[C@@H]5CO[C@H]6[C@@H]5OC[C@H]6O)nc4cc3Cl)cc2)CC1` [Example 11, (cis)-4-(4-(6-Chloro-2-((3R,3aR,6R,6aR)-6-hydroxyhexahydrofuro[3,2-b]furan-3-yloxy)-3H-imidazo[4,5-b]pyridin-5-yl)phenyl)cyclohexyl isopropylcarbamate] the same measures were 35 nM, 106% and 1.83 h.
On to `CC(C)NC(=O)O[C@H]1CC[C@H](c2ccc(-c3nc4[nH]c(O[C@@H]5CO[C@H]6[C@@H]5OC[C@H]6O)nc4cc3Cl)cc2)CC1` [Example 8, (trans)-4-(4-(6-Chloro-2-((3R,3aR,6R,6aR)-6-hydroxyhexahydrofuro[3,2-b]furan-3-yloxy)-3H-imidazo[4,5-b]pyridin-5-yl)phenyl)cyclohexyl isopropylcarbamate], for which the midpoint of the response in series [1], the EC50, lay at 339 nM. Also, in series [2], the “c (control) (metabolic stability), remaining test compound after NADPH independent incubation” value was 102% and the “t1/2 INVITRO” value was over 2.17 h.
In turn, `CC(C)OC(=O)N[C@H]1CC[C@@H](c2ccc(-c3nc4[nH]c(O[C@@H]5CO[C@H]6[C@@H]5OC[C@H]6O)nc4cc3Cl)cc2)CC1` [Example 4, Isopropyl (cis)-4-(4-(6-chloro-2-((3R,3aR,6R,6aR)-6-hydroxyhexahydrofuro[3,2-b]furan-3-yloxy)-3H-imidazo[4,5-b]pyridin-5-yl)phenyl)cyclohexylcarbamate] displayed an EC50 in series [1] of 12 nM. In series [2], the “c (control) (metabolic stability), remaining test compound after NADPH independent incubation” value is listed as 103% and the “t1/2 INVITRO” value was over 2.17 h.
On to `O=C(O[C@H]1CC[C@H](c2ccc(-c3nc4[nH]c(O[C@@H]5CO[C@H]6[C@@H]5OC[C@H]6O)nc4cc3Cl)cc2)CC1)N1CCOCC1` [Example 6, (trans)-4-(4-(6-Chloro-2-((3R,3aR,6R,6aR)-6-hydroxyhexahydrofuro[3,2-b]furan-3-yloxy)-3H-imidazo[4,5-b]pyridin-5-yl)phenyl)cyclohexyl morpholine-4-carboxylate], for which the EC50 in series [1] is 6 nM. Further, in series [2], the “c (control) (metabolic stability), remaining test compound after NADPH independent incubation” value was 98% and the “t1/2 INVITRO” value is over 2.17 h.
Molecule `CCOC(=O)NC1CCN(c2ccc(-c3nc4[nH]c(O[C@@H]5CO[C@H]6[C@@H]5OC[C@H]6O)nc4cc3Cl)cc2)CC1` [Example 1, Ethyl 1-(4-(6-chloro-2-((3R,3aR,6R,6aR)-6-hydroxyhexahydrofuro[3,2-b]furan-3-yloxy)-3H-imidazo[4,5-b]pyridin-5-yl)phenyl)piperidin-4-ylcarbamate] gave an EC50 in series [1] of 1.2 nM. In series [2], the “c (control) (metabolic stability), remaining test compound after NADPH independent incubation” value was determined as 100% and the “t1/2 INVITRO” value was over 2.17 h.
As for `O=C(O[C@H]1CC[C@H](c2ccc(-c3nc4[nH]c(O[C@@H]5CO[C@H]6[C@@H]5OC[C@H]6O)nc4cc3Cl)cc2)CC1)N1CCCC1` [Example 9, (trans)-4-(4-(6-Chloro-2-((3R,3aR,6R,6aR)-6-hydroxyhexahydrofuro[3,2-b]furan-3-yloxy)-3H-imidazo[4,5-b]pyridin-5-yl)phenyl)cyclohexyl pyrrolidine-1-carboxylate], a half-maximal response in series [1] (EC50) required 17 nM. For the same molecule, in series [2], the “c (control) (metabolic stability), remaining test compound after NADPH independent incubation” value came to 100% and the “t1/2 INVITRO” value was over 2.17 h.
`CCNC(=O)O[C@H]1CC[C@@H](c2ccc(-c3nc4[nH]c(O[C@@H]5CO[C@H]6[C@@H]5OC[C@H]6O)nc4cc3Cl)cc2)CC1` [Example 10, (cis)-4-(4-(6-Chloro-2-((3R,3aR,6R,6aR)-6-hydroxyhexahydrofuro[3,2-b]furan-3-yloxy)-3H-imidazo[4,5-b]pyridin-5-yl)phenyl)cyclohexyl ethylcarbamate]: in series [1], the EC50 worked out at 26 nM. For the same molecule, in series [2], the “c (control) (metabolic stability), remaining test compound after NADPH independent incubation” value stood at 105% and the “t1/2 INVITRO” value is over 2.17 h.
In series [1], `CN(C)C(=O)OC1CCN(c2ccc(-c3nc4[nH]c(O[C@@H]5CO[C@H]6[C@@H]5OC[C@H]6O)nc4cc3Cl)cc2)CC1` [Example 2, 1-(4-(6-Chloro-2-((3R,3aR,6R,6aR)-6-hydroxyhexahydrofuro[3,2-b]furan-3-yloxy)-3H-imidazo[4,5-b]pyridin-5-yl)phenyl)piperidin-4-yl dimethylcarbamate] gave an EC50 of 32 nM. Besides, in series [2], the “c (control) (metabolic stability), remaining test compound after NADPH independent incubation” value came out at 109% and the “t1/2 INVITRO” value turned out to be 1.85 h.
